# From patent publication US6410040B1, “Polymeric compounds and methods of formulating same” (Chemeq Limited, priority 1998, dated 2002)
# Columns and labels:
# [1] = Migration of sunscreen agents across a membrane model for skin; type: in vitro ADME; conditions: solution in ethanol
# Procedure: The effects of the presence of poly(2-propenal, 2-propenoic acid) on the migration of various agents across a model for skin were studied as follows. Results are shown in Table 8: In a special apparatus, the samples were applied to one side of a 0.45 micron cellulose acetate membrane in contact with, on the other side, a stirred solution of ethanol. “After” 1.5 hours, the spectrum of the “ethanol” was compared with the “Before” solution of sample in the same solvent: […]
# [2] = tested on: S. aureus; experiment: Minimal Kill Concentration Test; type: cell-based
# Procedure: (§1) 2. Minimal Kill Concentration Test
# (§2) Make serial 1 in 2 dilutions of the sample using sterile 0.85% saline. Add 0.1 mL of suspension of test organism to the dilution. Incubate at 37° C. for 24 hours. Subculture 1 mL from each tube into 10 mL sterile nutrient broth plus TWEEN 80; incubate at 37° C. for 24 hours.
# (§3) If the Minimum Kill Concentrations of compounds A, B, and a mixture of A and B are a, b and m, respectively, then there is synergy (“S”) upon mixing A and B if
# (§4) ie. S=(a+b)/m>1 for synergy
# [3] = tested on: Ps. aeruginosa; experiment: Minimal Kill Concentration Test; type: cell-based
# Procedure: as §1, §2, §3, §4
# [4] = tested on: A. niger; experiment: Minimal Kill Concentration Test; type: cell-based; conditions: Experiment 1
# Procedure: as §1, §2, §3, §4
# [5] = tested on: C. albicans; experiment: Minimal Kill Concentration Test; type: cell-based; conditions: Experiment 1
# Procedure: as §1, §2, §3, §4
# [6] = tested on: E. coli; experiment: Minimal Kill Concentration Test; type: cell-based; conditions: Experiment 1
# Procedure: as §1, §2, §3, §4
# [7] = tested on: B. cereus; experiment: Minimal Kill Concentration Test; type: cell-based; conditions: Experiment 1
# Procedure: as §1, §2, §3, §4
# [8] = tested on: P. vulgaris; experiment: Minimal Kill Concentration Test; type: cell-based; conditions: Experiment 1
# Procedure: as §1, §2, §3, §4
smiles,measurement,setting,value
CCCCC(CC)COC(=O)c1ccc(N(C)C)cc1 (stereo not shown) [octyl dimethyl p-aminobenzoate],"max (UV spectrum), Before",[1],max = 315 nm
"Oc1ccccc1-c1ccccc1.[Na] [phenol, orthophenylphenol, sodium salt]",Minimum Kill Concentration S. aureus,[2]; Experiment 2,20 p.p.m.
same,Minimum Kill Concentration Ps. aeruginosa,[3]; Experiment 2,>10000 p.p.m.
O=CCCCC=O [glutaraldehyde],Minimum Kill Concentration S. aureus,[2]; Experiment 2,80 p.p.m.
same,Minimum Kill Concentration Ps. aeruginosa,[3]; Experiment 2,155 p.p.m.
"O=C(O)CN(CCN(CC(=O)O)CC(=O)O)CC(=O)O [EDTA, ethylene diamine tetra acetic acid]",Minimum Kill Concentration A. niger,[4],1250 p.p.m.
same,Minimum Kill Concentration S. aureus,[2]; Experiment 1,625 p.p.m.
same,Minimum Kill Concentration Ps. aeruginosa,[3]; Experiment 1,625 p.p.m.
same,Minimum Kill Concentration C. albicans,[5],155 p.p.m.
same,Minimum Kill Concentration E. coli,[6],80 p.p.m.
same,Minimum Kill Concentration B. cereus,[7],80 p.p.m.
same,Minimum Kill Concentration P. vulgaris,[8],155 p.p.m.
CCCCC(CC)COC(=O)C=Cc1ccc(OC)cc1 (stereo not shown) [octyl methoxy cinnimate],"max (UV spectrum), Before",[1],max = 310 nm
